Data taken from paper PMC7327145 (Biomolecules & Therapeutics, 2020).
Where “and” joins values, the source holds several entries; their conditions need not be identical. Identical values can stand only once. Like-named read-outs stand apart in the source and are kept apart here.

How the values were obtained:
[1] = hepatic microsomes, SIDM vs control
P-glycoprotein (P-gp) = details: ref Hussa, 2014; cited from earlier work
[2] = ref Lawendy et al., 2009; Dowty et al., 2014; cited from earlier work
[3] = intestinal microsomes
[4] = assay type: in vivo, rat; details: for AUC / clearance / MRT / half-life / Vd: plasma; for clearance: CL; for half-life: Terminal half-life; for Vd: VSS
[5] = assay type: in vivo, rat; details: for CL renal: plasma and urine, CLR; for bioavailability: oral, F (bioavailability), oral 20 mg/kg vs intravenous 10 mg/kg
[6] = Tissue distribution of tofacitinib 30 min after intravenous administration; assay type: in vivo, rat; details: 30 min after intravenous 10 mg/kg, control and SIDM rats
[7] = Rat plasma protein binding by equilibrium dialysis; assay type: in vitro ADME; details: fresh plasma, pH 7.4, Plasma protein binding, range over control and SIDM rats
[8] = intravenous 10 mg/kg, SIDM rats
[9] = intravenous 10 mg/kg, SIDM vs control
[10] = intravenous 10 mg/kg, control rats
[11] = rat, iv, 10 mg/kg, control rats

CLint faster in SIDM rats than control rats [1]: 112%
Km smaller in SIDM rats than control rats [1]: 44.3%
Km, SIDM vs control rats [3]: comparable
CLint faster in SIDM rats than control rats ([3]; SIDM vs control): 35.4%
Ae0-24 h (dose excreted in urine for 24 h) [4, 8]: 6.64 ± 1.65 % of dose
CLNR [4, 8]: 55.5 ± 9.79 mL/min/kg
CLR estimated from the free (unbound to plasma proteins) fraction [4, 8]: 6.15 mL/min/kg
Contribution of CLR to CL [4, 8]: 7.97%
AUC smaller in SIDM rats than control rats [4, 9]: 33.6%
CL higher in SIDM rats than control rats [4, 9]: 51.1%
CLNR higher in SIDM rats than control rats [4, 9]: 43.8%
CLR higher in SIDM rats than control rats [4, 9]: 87.5%
Vss greater in SIDM rats than control rats [4, 9]: 262%
Ae0-24 h (dose excreted in urine for 24 h) [4, 10]: 6.99 ± 2.30 % of dose
CLNR [4, 10]: 38.6 ± 8.04 mL/min/kg
CLR estimated from the free (unbound to plasma proteins) fraction [4, 10]: 3.33 mL/min/kg
Contribution of CLR to CL [4, 10]: 6.42%
CL renal ([4]; rat, plasma and urine, iv, 10 mg/kg, CLR, control rats): 2.56 ± 0.59 mL/min/kg
AUC ([4]; rat, iv, 10 mg/kg, SIDM rats (n=7)): 2830 ng·h/mL
AUC ([4]; rat, iv, 10 mg/kg, control rats (n=9)): 4270 ng·h/mL
clearance ([4]; rat, iv, 10 mg/kg, SIDM rats): 60.3 ± 11.1 mL/min/kg
clearance [4, 11]: 39.9 ± 6.74 mL/min/kg
MRT ([4]; rat, iv, 10 mg/kg, SIDM rats): 44.3 min
MRT [4, 11]: 21.3 min
half-life ([4]; rat, iv, 10 mg/kg, SIDM rats): 26.5 ± 2.81 min
half-life [4, 11]: 30.2 ± 4.83 min
Vd ([4]; rat, iv, 10 mg/kg, SIDM rats): 3.56 ± 2.38 L/kg
Vd [4, 11]: 0.986 ± 0.379 L/kg
Ae0-24 h (dose excreted in urine for 24 h) ([5]; oral 20 mg/kg, SIDM rats): 6.94 ± 2.42 % of dose
AUC lower in SIDM rats than control rats ([5]; oral 20 mg/kg, SIDM vs control): 55.5%
CLR higher in SIDM rats than control rats ([5]; oral 20 mg/kg, SIDM vs control): 145%
Cmax lower in SIDM rats than control rats ([5]; oral 20 mg/kg, SIDM vs control): 61.1%
Decrease of F (bioavailability) in SIDM rats vs control rats ([5]; oral 20 mg/kg, SIDM vs control, 20 mg/kg): 33%
Ae0-24 h (dose excreted in urine for 24 h) ([5]; oral 20 mg/kg, control rats): 7.98 ± 1.34 % of dose
CL renal ([5]; rat, po, 20 mg/kg, oral 20 mg/kg, SIDM rats): 21.7 ± 14.9 mL/min/kg
CL renal ([5]; rat, po, 20 mg/kg, oral 20 mg/kg, control rats): 8.86 ± 13.5 mL/min/kg
bioavailability ([5]; rat, plasma, 20 mg/kg, SIDM rats): 23.8%
bioavailability ([5]; rat, plasma, 20 mg/kg, control rats): 35.5%
AUC ([5]; rat, plasma, po, 20 mg/kg, oral 20 mg/kg, SIDM rats (n=7)): 1350 ng·h/mL
AUC ([5]; rat, plasma, po, 20 mg/kg, oral 20 mg/kg, control rats (n=8)): 3030 ng·h/mL
Cmax ([5]; rat, plasma, po, 20 mg/kg, Cmax, oral 20 mg/kg, SIDM rats): 680 ± 360 ng/mL
Tmax ([5]; rat, plasma, po, 20 mg/kg, oral 20 mg/kg, SIDM rats): 25.7 min
Tmax ([5]; rat, plasma, po, 20 mg/kg, oral 20 mg/kg, control rats): 17.9 min
Tissue distribution [6]: widely distributed
fraction unbound at 24 h, 10 µg/mL [7]: 0.769 to 0.781
Compound: C[C@@H]1CCN(C(=O)CC#N)C[C@@H]1N(C)c1ncnc2[nH]ccc12 [tofacitinib, 3-[(3R,4R)-4-methyl-3-[methyl-(7H-pyrrolo[2,3-day]pyrimidin-4-yl)amino]piperidin-1-yl]-3-oxopropanenitrile]
P-glycoprotein (P-gp) substrate status (P-glycoprotein (P-gp)): substrate of P-glycoprotein
Terminal half-life [2]: approximately 3.3 h
GI24 h (dose remaining in the gastrointestinal tract at 24 h) ([5]; oral 20 mg/kg, SIDM rats, 20 mg/kg): 0.238 % of dose and 0.238 ± 0.160 % of dose
GI24 h (dose remaining in the gastrointestinal tract at 24 h) ([5]; oral 20 mg/kg, control rats, 20 mg/kg): 0.177 % of dose and 0.177 ± 0.123 % of dose
